Assay results as given in ChEMBL document CHEMBL1129948, “Synthesis and anti-trypanosomal activity of various 8-aza-7-deaza-5'noraristeromycin derivatives” (J Med Chem, 1997).
Activity calls are given as the source filed them. No cut-off for these calls is given here.

Legend:
Vero = assay: Cytotoxic activity of compound against Vero cell line; No toxicity; format: functional, cell-based; conditions: Chlorocebus sabaeus
HeLa = assay: Cytotoxic activity of compound against HeLa cell line; No toxicity; format: functional, cell-based; conditions: Homo sapiens
Trypanosoma brucei [1] = assay: (§1) Inhibition of growth of Trypanosoma uM concentration; format: functional, organism-based
Trypanosoma brucei [2] = assay: as §1; format: functional, organism-based; remark: listed apart in the source
Trypanosoma brucei [3] = assay: as §1; format: functional, organism-based; remark: listed apart in the source
HEL = assay: Cytotoxic activity of compound against HEL cell line; No toxicity; format: functional, cell-based; conditions: Homo sapiens
Trypanosoma brucei [4] = assay: as §1; format: functional, organism-based; remark: listed apart in the source
E6SM = assay: Cytotoxic activity of compound against E6SM cell line; No toxicity; format: functional, cell-based; conditions: Homo sapiens
Trypanosoma brucei [5] = assay: (§2) Inhibition of growth of Trypanosoma uM); format: functional, organism-based
Trypanosoma brucei [6] = assay: as §2; format: functional, organism-based; remark: listed apart in the source
Trypanosoma brucei [7] = assay: as §2; format: functional, organism-based; remark: listed apart in the source
Trypanosoma brucei [8] = assay: as §2; format: functional, organism-based; remark: listed apart in the source
Trypanosoma brucei [9] = assay: as §1; format: functional
Trypanosoma brucei [10] = assay: as §1; format: functional; remark: listed apart in the source

SMILES	Cytotoxic activity (Vero)	Cytotoxic activity (HeLa)	IC50 (Trypanosoma brucei [1])	IC50 (Trypanosoma brucei [2])	IC50 (Trypanosoma brucei [3])	Cytotoxic activity (HEL)	IC50 (Trypanosoma brucei [4])	Cytotoxic activity (E6SM)	IC50 (Trypanosoma brucei [5])	IC50 (Trypanosoma brucei [6])	IC50 (Trypanosoma brucei [7])	IC50 (Trypanosoma brucei [8])	Inhibition (Trypanosoma brucei [9])	Inhibition (Trypanosoma brucei [10])
Nc1ncnc2c1cnn2[C@H]1C[C@@H](O)[C@H](O)[C@@H]1O	No toxicity	No toxicity	44 µM	53 µM	72 µM	No toxicity	67 µM	No toxicity						
C[C@H]1C[C@@H](n2ncc3c(N)ncnc32)[C@H](O)[C@@H]1O	No toxicity	No toxicity	16.8 µM	12.2 µM		No toxicity	14 µM	No toxicity						
Nc1ncnc2c1cnn2[C@@H]1C=C[C@@H](O)[C@H]1O	No toxicity	No toxicity				No toxicity		No toxicity	> 100 µM	> 100 µM	> 100 µM	> 100 µM		
C[C@@H]1C[C@H](n2ncc3c(N)ncnc32)[C@@H](O)[C@H]1O	No toxicity	No toxicity				No toxicity		No toxicity	> 100 µM	> 100 µM	> 100 µM	> 100 µM		
Nc1ncnc2c1cnn2[C@H]1C=C[C@@H](O)C1	No toxicity	No toxicity				No toxicity		No toxicity	> 100 µM	> 100 µM	> 100 µM	> 100 µM		
Nc1ncnc2c1ccn2[C@H]1C[C@@H](O)[C@H](O)[C@@H]1O	inactive	Non-toxic		0.85 µM	5.3 µM	inactive	1.55 µM	inactive						
Nc1ncnc2c1cnn2[C@H]1C=C[C@H](O)[C@@H]1O	No toxicity	No toxicity	> 100 µM	> 100 µM		No toxicity		No toxicity						
Nc1ncnc2c1cnn2[C@H]1CC[C@H](O)[C@@H]1O	No toxicity	No toxicity				No toxicity		No toxicity					23%	37%
Nc1ncnc2c1cnn2[C@@H]1CC[C@@H](O)[C@H]1O	No toxicity	No toxicity				No toxicity		No toxicity	> 100 µM	> 100 µM	> 100 µM	> 100 µM		
Nc1ncnc2c1cnn2[C@@H]1C[C@H](O)[C@@H](O)[C@H]1O	No toxicity	No toxicity				No toxicity		No toxicity	> 100 µM			> 100 µM		
Nc1ncnc2c1cnn2[C@@H]1C=C[C@H](O)C1	No toxicity	No toxicity				No toxicity		No toxicity	> 100 µM			> 100 µM		
